Measured values published in patent EP0341213A2, “5-Aryl-substituted-2,3-dihydro-imidazo [1,2-a]furo[3,2-c]- or thieno[2,3-c]pyridines” (SANDOZ AG, priority 1988, dated 1989).

Key:
[1] = biological target: T1, platelet activating factor (PAF) receptor (Homo sapiens, UniProt P25105); assay: Human Platelet PAF Receptor Assay test (test A): inhibition of specific binding of [3H]-PAF to platelets
T1 construct: endogenous in cells; host or cells: human platelets
Excerpt: The compounds of formula I in free base form or in pharmaceutically acceptable acid addition salt form, hereinafter referred to as "the compounds", are indicated for use as platelet activating factor (PAF) receptor antagonists, as indicated by their ability to inhibit specific binding of [^3H)-PAF to platelets according to the Human Platelet PAF Receptor Assay test (test A) as described in WO 88/587.

[2] = test system: PAF-mediated bronchoconstriction; assay: PAF-induced Pulmonary Inflation Pressure (PIP) Increase test (test B); type: in vivo; conditions: po
Description: Moreover, in view of their activity as PAF receptor antagonists, the compounds are indicated for use as inhibitors of PAF-mediated bronchoconstriction, which property is evaluated by the PAF-induced Pulmonary Inflation Pressure (PIP) Increase test (test B) as described in WO 88/587, to generate an EDso (dose needed to effect a 50°/o response).

[3] = test system: PAF-mediated extravasation; assay: PAF-induced Extravasation test (test C), measured as a function of hemoconcentration; type: in vivo; conditions: po
Excerpt: Furthermore, the compounds are indicated for use as inhibitors of PAF-mediated extravasation (the extrusion of plasma from the lumen of the blood vessels into the vessel wall and surrounding tissues) measured as a function of hemoconcentration according to the PAF-induced Extravasation test (test C) as described in WO 88/587. From the values obtained an EDso is generated.

T1 sequence (P25105 whole entry): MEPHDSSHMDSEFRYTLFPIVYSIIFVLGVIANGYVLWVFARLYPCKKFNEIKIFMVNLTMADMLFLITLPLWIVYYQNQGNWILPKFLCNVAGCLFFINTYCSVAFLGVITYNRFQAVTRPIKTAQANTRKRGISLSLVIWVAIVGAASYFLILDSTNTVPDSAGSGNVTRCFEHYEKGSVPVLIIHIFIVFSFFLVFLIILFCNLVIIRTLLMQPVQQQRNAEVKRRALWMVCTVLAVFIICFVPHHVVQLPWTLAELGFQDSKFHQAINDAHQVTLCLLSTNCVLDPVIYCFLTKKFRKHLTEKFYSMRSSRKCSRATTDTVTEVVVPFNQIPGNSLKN

| IC50 [1] | Compound | ED50 ([2]; dose needed to effect a 50% response, read-out: EDso) | ED50 [3] | inhibition at 10 mg/kg ([2]; at 10 mg/kg p.o.) | inhibition at 10 mg/kg ([3]; at 10 mg/kg p.o.) |
| --- | --- | --- | --- | --- | --- |
| 100 nM | COc1cc(CCc2ccc(C3=Cc4ccsc4C4=NCCN34)cc2)cc(OC)c1OC [Example 1, 2,3-Dihydro-5-[4-[2-(3,4,5-trimethoxyphenyl)ethyl]phenyl]imidazo[1,2-a]thieno[2,3-c]pyridine] | 1 mg/kg | 1 mg/kg | – | – |
| 70 nM | COc1cc(CCc2ccc(C3=Cc4oc(C)cc4C4=NCCN34)cc2)cc(OC)c1OC [Example 2, 2,3-Dihydro-8-methyl-5-[4-[2-(3,4,5-trimethoxyphenyl)ethyl]phenyl]imidazo[1,2-a]furo[3,2-c]pyridine] | – | – | 38% | 59% |
